Test results as given in patent US11339122B2, “hTRPV1 chemical agents” (UNIVERSITY OF PITTSBURGH—OF THE COMMONWEALTH SYSTEM OF …, priority 2015, dated 2022).
Several values for one entry are separate records, joined by “and”; a condition that tells them apart may be missing. Identical values can stand only once.

How the values were obtained:
hTRPV1 [1] = target: T1, hTRPV1 (Homo sapiens (Human), UniProt Q8NER1); assay: Ca2+ uptake assay, capsaicin antagonism (CHO-hTRPV1 cells); format: cell-based; conditions: for % inhibition at 30 μM (capsaicin antagonism) / inhibition at 30 µM: compound at 30 μM, capsaicin 30 nM; for Ki: capsaicin (30 nM) stimulated Ca2+ uptake
T1 sequence (Q8NER1 whole entry): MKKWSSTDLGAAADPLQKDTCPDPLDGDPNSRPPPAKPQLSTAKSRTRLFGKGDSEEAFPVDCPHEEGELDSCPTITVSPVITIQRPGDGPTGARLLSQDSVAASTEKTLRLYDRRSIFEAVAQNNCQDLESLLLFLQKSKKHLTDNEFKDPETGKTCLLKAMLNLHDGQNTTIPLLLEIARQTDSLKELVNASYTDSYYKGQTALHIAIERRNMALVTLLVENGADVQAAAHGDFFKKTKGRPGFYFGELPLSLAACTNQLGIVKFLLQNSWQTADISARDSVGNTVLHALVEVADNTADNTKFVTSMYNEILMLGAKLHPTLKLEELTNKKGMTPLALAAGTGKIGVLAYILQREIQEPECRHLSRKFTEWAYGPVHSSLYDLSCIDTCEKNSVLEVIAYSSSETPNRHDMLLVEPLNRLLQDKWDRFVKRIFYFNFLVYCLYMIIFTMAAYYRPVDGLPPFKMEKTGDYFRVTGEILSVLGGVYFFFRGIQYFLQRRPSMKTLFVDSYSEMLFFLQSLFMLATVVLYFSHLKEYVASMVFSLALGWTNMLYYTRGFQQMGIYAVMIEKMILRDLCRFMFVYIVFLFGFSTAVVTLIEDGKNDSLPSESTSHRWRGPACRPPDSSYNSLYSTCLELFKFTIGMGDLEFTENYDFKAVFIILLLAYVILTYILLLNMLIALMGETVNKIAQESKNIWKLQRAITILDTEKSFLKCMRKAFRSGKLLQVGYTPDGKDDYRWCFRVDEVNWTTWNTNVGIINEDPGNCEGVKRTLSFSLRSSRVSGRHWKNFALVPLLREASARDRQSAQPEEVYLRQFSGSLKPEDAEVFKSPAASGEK
Description: (§1) Tet-On induced CHO-hTRPV1 cells were cultured in maintaining medium (F12 supplemented with 10% TET-free FBS [Atlanta Biologicals, GA], 25 mM HEPES, 10 μg/ml blasticidin and 250 μg/ml geneticin (all from Invitrogen Life Sciences; Grand Island, N.Y.). TRPV1 protein was induced with induction medium (F12 supplemented with 10% FBS, 25 mM HEPES, and 1 μg/ml tetracycline) as described below for ligand binding and Ca uptake measurements.
(§2) CHO-hTRPV1 cells were plated in 24-well plates, reaching 40 to 60% confluence in maintaining medium after 24 hours. The cells were washed once with Dulbecco's phosphate buffered saline (DPBS; Invitrogen, Grand Island, N.Y.) to remove antibiotics, and fresh medium with tetracycline (inducing medium) was added to induce TRPV1 expression. Experiments were done approximately 24 hours after induction. The cells were at least 90% confluent at the time of the assays.
(§3) For agonist Ca^2+ uptake assays, the inducing medium was aspirated and replaced by DMEM (supplemented with bovine serum albumin (0.25 mg/mL), […], and 100 μl of increasing concentrations of the non-radioactive ligand for a total volume of 400 μl/well. The cells were incubated for 5 min in a water bath at 37° C. For uptake measurements by a full agonist, a saturating concentration of capsaicin (3000 nM) was used as a positive control. Immediately after incubation, the assay medium was aspirated and the cells were washed twice with ice cold DPBS (no Ca^2+ & Mg^2+).The cells were then lysed in radioimmunoprecipitation assay buffer (50 mM Tris-Cl pH 7.5, 150 mM NaCl, 1% Triton X-100, 1% SDS, and 1% sodium deoxycholate; 400 μL/well) for at least 40 min on a shaker. Aliquots (300 μL) of the cell lysates were counted in a liquid scintillation counter. Background uptake was determined in the absence of either compound or capsaicin. For the antagonism assays, capsaicin (30 nM) was included along with increasing concentrations of the ligand being evaluated. The cells were incubated for 5 min in a water bath at 37° C. Immediately after incubation, the assay medium was aspirated and the cells were washed twice with ice-cold DPBS (no Ca^2+ & Mg^2+). The cells were then lysed in radioimmunoprecipitation assay buffer for at least 40 min on a shaker. Aliquots of the cell lysate were counted in a liquid scintillation counter. Triplicate points at each concentration of ligand were determined in each experiment. Compounds were initially screened at a concentration of 30 µM. Compounds showing greater than 10% agonism/antagonism were evaluated in triplicate experiments. As indicated, full dose response curves for compounds showing activity were performed at least three times. Data was analyzed using GraphPad Prism.

hTRPV1 [2] = target: T1, hTRPV1; assay: [3H]RTX competition binding assay (membranes of induced CHO-hTRPV1 cells); conditions: approximately 2 nM [3H]RTX, 37° C., 60 minutes; read-out: Ki for inhibition of [3H]RTX binding to hTRPV1
Description: as §1
Binding studies with [^3H]RTX were carried out as follows. The binding assay mixtures were prepared in 1.5 ml centrifuge tubes and consisted of a fixed concentration (approximately 2 nM) of [^3H]RTX (37 Ci/mmol specific activity, PerkinElmer Life Sciences), various concentrations of competing ligands, and […] of membranes from induced CHO-hTRPV1 expressing cells (approximately 1-3×10^6 cells) in Dulbecco's phosphate buffered saline (DPBS, with Ca^2+ & Mg^2+) for a total volume of 350 μl. The assay mix contained bovine serum albumin at a final concentration of 0.25 mg/ml (Cohn fraction V; Sigma-Aldrich, St. Louis, Mo.). In each set of experiments, nonspecific binding were determined in the presence of 200 nM non-radioactive RTX. The binding reaction was initiated by placing the assay mixture in a 37° C. shaking water bath for 60 minutes ([…]). The assay mixture was then chilled on ice for 2-3 min before adding 100 μl of α1-acid glycoprotein (2 mg/ml; Sigma-Aldrich) and mixed thoroughly. The tubes were kept on ice for an additional 10 min. The bound and free ligands were then separated by centrifugation (12,200 rpm for 15 minutes) in a Beckman Coulter centrifuge Allegra 21R. 200 μl of supernatant was collected for determination of free ligand. The remainder was removed by aspiration. The bottom portion of the tubes containing the membranes was cut off and bound radioactivity determined. Radioactivity was measured by scintillation counting. Data were analyzed using GraphPad Prism. Ki values for compounds were determined by competition for binding of [^3H]RTX to the hTRPV1 and represent the mean SEM of triplicate binding curves. […]

hTRPV1 [3] = target: T1, hTRPV1; assay: Agonist Ca2+ uptake assay (CHO-hTRPV1 cells); format: cell-based
Description: as §1, §2
as §3, with “The cells were incubated for 5 min in a water bath at 37° C. Immediately after incubation, the assay medium was aspirated and the cells were washed twice with ice-cold DPBS (no Ca^2+ & Mg^2+). The cells were then lysed in radioimmunoprecipitation assay buffer for at least 40 min on a shaker.” left out, “Triplicate points at each concentration of ligand were determined in each experiment. Compounds were initially screened at a concentration of 30 µM. Compounds showing greater than 10% agonism/antagonism were evaluated in triplicate experiments. As indicated, full dose response curves for compounds showing activity were performed at least three times.” left out

[4] = target: cannabinoid receptor 2 (CB2) (Homo sapiens (Human), UniProt P34972); assay: Binding at the cannabinoid receptor 2 (CB2)
Chain of cannabinoid receptor 2 (CB2) (P34972 whole entry, species assumed): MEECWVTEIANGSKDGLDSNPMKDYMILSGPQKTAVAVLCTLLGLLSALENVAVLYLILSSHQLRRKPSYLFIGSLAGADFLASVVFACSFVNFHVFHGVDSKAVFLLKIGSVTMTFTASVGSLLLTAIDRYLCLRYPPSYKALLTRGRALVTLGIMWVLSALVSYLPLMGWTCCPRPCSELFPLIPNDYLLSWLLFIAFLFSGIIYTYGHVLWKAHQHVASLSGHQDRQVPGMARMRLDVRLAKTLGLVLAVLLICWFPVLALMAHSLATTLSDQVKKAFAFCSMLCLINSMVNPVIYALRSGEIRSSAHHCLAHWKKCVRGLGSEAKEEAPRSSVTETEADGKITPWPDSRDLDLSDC

inhibition at 30 µM (hTRPV1 [1]) [%] | Ki (hTRPV1 [1]) | Compound | further results
33 ± 7 | – | COc1ccc(Cl)cc1NC(=O)Nc1ccc(CCO)cc1 [Compound 7] | –
28 ± 6 | – | COc1ccc(C)cc1NC(=O)Nc1ccccc1F [Compound 8] | –
– | 3.7 ± 1.7 µM | CSc1ccc(NC(=O)Nc2ccc(Cl)cc2[N+](=O)[O-])cc1 [Compound 11] | % inhibition at 30 μM (capsaicin antagonism) (hTRPV1 [1]): 61 ± 18%
– | 0.47 ± 0.18 µM | O=C(Nc1ccc(F)c([N+](=O)[O-])c1)Nc1cccc2c(O)cccc12 [Compound 14] | % inhibition at 30 μM (capsaicin antagonism) (hTRPV1 [1]): 100 ± 0%; Ki (hTRPV1 [2]): 0.65 ± 0.26 µM; Ki [4]: 15.9 µM
99.6 | 0.49 ± 0.14 µM | Cc1c(Cl)cccc1NC(=O)Nc1cccc2c(O)cccc12 [Compound 15] | Ki [4]: 1.39 µM
– | 2.15 ± 0.72 µM | O=C1C(=O)c2cc(Br)cc([N+](=O)[O-])c2-c2ccc(Br)cc21 [Compound 17] | % inhibition at 30 μM (capsaicin antagonism) (hTRPV1 [1]): 66 ± 11%

Continued, compound first:

Compound | inhibition at 30 µM (hTRPV1 [1]) [%] | Ki (hTRPV1 [1]) | further results
O=C(Nc1cccc(C(F)(F)F)c1)Nc1ccc([N+](=O)[O-])cc1Cl [Compound 1] | 98.2 ± 2.7 | – | % inhibition at 30 μM (capsaicin antagonism) (hTRPV1 [1]): 92.2 ± 2.7%; Ki (hTRPV1 [2]): 1.11 ± 0.21 µM
Cc1cc([N+](=O)[O-])ccc1NC(=O)Nc1cccc(F)c1 [Compound 2] | 79.9 ± 4.9 | 4.5 µM and 4.52 µM | Ki (hTRPV1 [1]; listed as compound 2): 4.5 ± 0.88 µM; Ki (hTRPV1 [2]): 5.2 ± 0.32 µM
NC(=O)c1ccccc1NC(=O)Nc1ccc(F)cc1 [Compound 3] | 32 ± 8 | – | –
CCOC(=O)c1ccc(NC(=O)Nc2cccc(Cl)c2)cc1 [Compound 4] | 64.5 | 11.7 ± 1.3 µM | –
CCOC(=O)c1ccc(NC(=O)Nc2ccc(F)cc2)cc1 [Compound 5] | – | – | functional character at hTRPV1 (hTRPV1 [3]): partial agonist; EC50 (hTRPV1 [3]; Ca2+ uptake, CHO-hTRPV1 cells, read-out: EC50 for capsaicin agonism): 2.84 ± 0.21 µM; Emax (hTRPV1 [3]; relative to 3000 nM capsaicin, read-out: maximal stimulation, % of that by 3000 nM capsaicin (% agonism)): 55.7 ± 7.8%
CCOC(=O)c1ccc(NC(=O)Nc2cc(Cl)ccc2C)cc1 [Compound 6] | 34 ± 7 | – | –
Cc1cc(O)c(C(C)C)cc1NC(=O)Nc1ccc(Br)cc1 [Compound 9] | 27 ± 14 | – | –
Cc1ccc(Cl)cc1NC(=O)Nc1cccc2c(O)cccc12 [Compound 13] | 72 | 3.7 ± 1 µM | –
Cc1c(Cl)cccc1NC(=O)Nc1cccc(O)c1 [Compound 16] | 100 | 0.56 ± 0.16 µM | Ki [4]: 12.2 µM
O=C(Nc1cc(C(F)(F)F)ccc1Cl)c1ccccc1F [Compound 18] | 51.8 | 7 ± 2 µM | –
CCN(CC)c1ccc(CNS(=O)(=O)c2ccc(NC(C)=O)cc2)cc1 [XIE1-203Y, N-(4-(N-(4-(diethylamino)benzyl)sulfamoyl)phenyl)acetamide] | 12.7 ± 1 | – | –
